The results in this text go back to ChEMBL document CHEMBL3137440, “DNDi T. cruzi fenarimol series dataset from which preclinical candidate EPL-BS0967 was identified (see also related datasets: CHEMBL3137386 and CHEMBL2448688)”.

Values after ≈ are worked out from the molar mass of the structure shown. Values joined by “and” are separate entries in the source; they are usually repeats but may differ in a detail not shown here. Equal entries are not always repeated. A value given as a limit tells only on which side of the number the result lay.

Data set [1] relates to Trypanosoma cruzi. Briefly: (§1) DNDI: Chagas in Vitro. Type of data set: functional, Tulahuen C4 (LacZ).
Data set [2] relates to Trypanosoma brucei rhodesiense. Briefly: DNDI: HAT in Vitro. Conditions: ATCC 30027. In kind it is functional, organism-based.
A short description of data set [3]: in vitro. The conditions noted are these: human, microsomes.
Data set [4] is described as follows: (§2) DNDI: Cytotoxicity against L-6 rat myoblasts from skeletal musclE. The conditions noted are these: L6 rat skeletal muscle myoblasts, IC50.
The nature of data set [5]: in vitro. The conditions noted are these: human, microsomes. The source holds these as a separate data set.
Data set [6] in a line: in vitro. Conditions: human, microsomes. The source holds these as a separate data set.
Data set [7] in a line: (§3) DNDI: Lipophilicity (gLogD) at pH 3. In kind it is physicochemical. The conditions noted are these: buffer.
The nature of data set [8]: (§4) DNDI: Solubility in phosphate buffer at pH 6.5 determined by nephelometry. Type of data set: physicochemical.
Data set [9] has as its system Trypanosoma cruzi. The data set is described as §1. Type of data set: functional, organism-based, Tulahuen C4 (LacZ).
Data set [10] is described as follows: as §3. The conditions noted are these: buffer.
Data set [11] concerns Leishmania donovani. As to the kind of experiment: DNDI: Inhibition of formation of Leishmania donovani. In kind it is functional, MHOM/ET/67/L82. More on the design: concentration or dose not given beside the values.
The target in data set [12] is T1, Cytochrome P450 3A4 (Homo sapiens, UniProt P08684). Briefly: DNDI: CYP Inhibition. In kind it is ADME.
Data set [13] is described as follows: DNDI: Solubility in 0.01M HCl at pH 2 determined by nephelometry.
Data set [14] can be described thus: DNDI: Metabolism. Type of data set: ADME, Microsome. The conditions noted are these: rat, microsomes; for hepatic extraction ratio: read-out: EH.
The target in data set [15] is T1, Cytochrome P450 3A4.
Data set [16] is described as follows: as §4.
A short description of data set [17]: DNDI: Lipophilicity (gLogD) at pH 7.4. Conditions: buffer.
The subject of data set [18] is L6. The data set is described as §2.
The conditions of data set [19]: human, microsomes.
In data set [20] the target is T1, Cytochrome P450 3A4. This is another data set of the same source.
For data set [21] the following is noted: human, microsomes. The source holds these as a separate data set.
The conditions of data set [22]: human, microsomes. This is another data set of the same source.
Where [23] appears, read: Trypanosoma cruzi, Tulahuen C4 (LacZ).

T1 sequence (P08684 whole entry): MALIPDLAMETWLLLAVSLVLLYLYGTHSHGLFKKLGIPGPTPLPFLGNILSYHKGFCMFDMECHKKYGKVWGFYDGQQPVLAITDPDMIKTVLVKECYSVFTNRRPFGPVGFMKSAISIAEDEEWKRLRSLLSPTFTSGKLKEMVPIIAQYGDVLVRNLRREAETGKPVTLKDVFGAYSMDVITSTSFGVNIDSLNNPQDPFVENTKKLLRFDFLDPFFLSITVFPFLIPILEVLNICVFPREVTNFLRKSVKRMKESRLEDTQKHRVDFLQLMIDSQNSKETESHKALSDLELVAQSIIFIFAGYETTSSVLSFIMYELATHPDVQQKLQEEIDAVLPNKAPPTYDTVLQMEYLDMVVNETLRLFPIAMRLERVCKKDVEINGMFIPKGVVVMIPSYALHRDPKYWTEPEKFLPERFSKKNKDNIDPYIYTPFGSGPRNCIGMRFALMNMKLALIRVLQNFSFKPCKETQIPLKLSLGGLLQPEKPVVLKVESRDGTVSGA

Broadly, the IC90 is the concentration at which the effect reaches the 90% level. By IC50 is commonly meant the concentration at which inhibition is half-maximal. In general, microsomal CLint refers to the rate of metabolic loss divided by the concentration. The half-life is how long it takes for the measured level to halve. Usually chromatographic logD stands for a lipophilicity value derived from retention on a column. As usually defined, the kinetic solubility is the concentration staying in solution when a stock, usually in DMSO, is diluted into the medium. On to `FC(F)(F)c1ccc(N(c2cncnc2)C2CCN(c3ccc(C(F)(F)F)cn3)CC2)cc1`, for which the IC90 in data set [1] was found to be 0.01 µM; in data set [1] (setting [23]), 0.00915 µM. In addition, the IC50 in data set [2] was > 10 µM; in [4], 93.2 µM; in data set [9] it was 0.0054 µM and 0.005 µM; in data set [9] (setting [23]), 0.00365 µM. In data set [3], this compound returned a microsomal CLint of 30.9 µL/min/mg. Also, the hepatic extraction ratio in data set [5] was found to be 0.63. For the same compound, the half-life in data set [6] was 56 min. Further, the chromatographic logD in data set [7] was 5. In addition, in [8], the solubility (kinetic) was < 1.6 µg/mL.
For orientation: % inhibition means the relative decrease from the control value, in per cent. Turning to `CC(C)(C)CC(=O)N1CCC(N(c2ccc(Cl)cc2)c2cccnc2)CC1`, the chromatographic logD in data set [10] (pH 3) was 2.4. This compound also showed an IC90 in data set [1] (setting [23]) of 0.00193 µM. Also, the “% inhibition” value in data set [11] was found to be 42.9%. Further, the microsomal CLint in data set [3] came out at 175 µL/min/mg; in data set [14] it was 357 µL/min/mg. For the same compound, the figures for the IC50 in data set [12] and in [9] (setting [23]) were 0.8 µM and 0.000595 µM, respectively. Also, the values for the hepatic extraction ratio in [5] and in data set [14] were 0.91 and 0.92, respectively. Also, the half-life in [6] worked out at 9.9 min; in data set [14], 4.9 min. Further, the kinetic solubility in data set [13] is > 100 µg/mL.
As to `Cc1noc(C)c1C(=O)N1CCC(N(c2ccc(C(F)(F)F)cc2)c2cccnc2)CC1`, the IC50 in data set [15] is 2.1 µM; in data set [18] it was 78.5 µM; in [4], > 100 µM; in data set [9], 0.008 µM and 0.00304 µM. In addition, the chromatographic logD stood at 2.4 in data set [10] (pH 3) and 3.5 in data set [17] (pH 7.4). For the same compound, the IC90 in data set [1] was 0.047 µM and 0.00838 µM. The solubility (kinetic) in data set [16] was 12.5 µg/mL (≈ 28.1 µM); in data set [13] it was > 100 µg/mL. The microsomal CLint in data set [3] worked out at 147 µL/min/mg; in [14] it was 79.3 µL/min/mg. In addition, the values for the hepatic extraction ratio in data set [5] and in data set [14] were 0.89 and 0.72, respectively. Moreover, the half-life in [6] is 11.8 min; in data set [14], 21.8 min.
On to `O=C(c1ccc(F)cc1)N1CCC(N(c2ccc(C(F)(F)F)cc2)c2cccnc2)CC1`, for which the IC50 came to 4.4 µM in data set [15]; 44.5 µM in [18]; 54.3 µM in [4]; 0.00783 µM in [9]; 0.015 µM in data set [9] (setting [23]). For the same compound, the results for the chromatographic logD in [10] (pH 3) and in [17] (pH 7.4) were 3.1 and 4.1, respectively. Moreover, the concentration for an effect of 90% (IC90) in data set [1] amounted to 0.0207 µM; in data set [1] (setting [23]) it was 0.028 µM. Moreover, the kinetic solubility in data set [16] was 3.1 µg/mL (≈ 6.99 µM); in data set [13], > 100 µg/mL. Also, the microsomal CLint in data set [3] was found to be 131 µL/min/mg; in data set [14], 105 µL/min/mg. Besides, the figures for the hepatic extraction ratio in [5] and in data set [14] were 0.88 and 0.77, respectively. Further, the values for the half-life in [6] and in [14] were 13.2 min and 16.6 min, respectively.
In the case of `CS(=O)(=O)N1CCC(N(c2ccc(Cl)cc2)c2cccnc2)CC1`, the values for the chromatographic logD in [10] (pH 3) and in data set [17] (pH 7.4) were 1.6 and 3.1, respectively. This compound had an IC90 in [1] (setting [23]) of 0.28 µM. For the same compound, the kinetic solubility was 12.5 µg/mL (≈ 34.2 µM) in data set [16] and > 100 µg/mL in data set [13]. Also, the figures for the microsomal CLint in [3] and in data set [14] were 48.8 µL/min/mg and 62.6 µL/min/mg, respectively. Moreover, the IC50 turned out to be 62.5 µM in data set [4], 2.6 µM in [12] and 0.094 µM in data set [9] (setting [23]). Besides, the hepatic extraction ratio is 0.73 in [5] and 0.67 in [14]. In addition, the half-life is 35.5 min in [6] and 27.7 min in data set [14].
As for `O=C(C1CC1)N1CCC(N(c2ccc(Cl)cc2)c2cccnc2)CC1`, the figures for the chromatographic logD in data set [10] (pH 3) and in [17] (pH 7.4) were 1.6 and 3.4, respectively. Further, in data set [1] (setting [23]), the IC90 amounted to 0.0134 µM. Besides, the results for the solubility (kinetic) in data set [16] and in data set [13] were 12.5 µg/mL (≈ 35.1 µM) and > 100 µg/mL, respectively. The intrinsic metabolic clearance (microsomal CLint) in [3] was 72.3 µL/min/mg; in data set [14] it was 171 µL/min/mg. The IC50 in data set [4] was 78.2 µM; in data set [12], 1.5 µM; in data set [9] (setting [23]), 0.00582 µM. In addition, the hepatic extraction ratio is 0.8 in [5] and 0.85 in data set [14]. Also, the results for the half-life in data set [6] and in [14] were 24 min and 10.1 min, respectively.
On to `O=C(c1ccccc1)N1CCC(N(c2ccc(Cl)cc2)c2cccnc2)CC1`, for which the figures for the chromatographic logD in data set [10] (pH 3) and in data set [17] (pH 7.4) were 2.1 and 3.8, respectively. In addition, in [1] (setting [23]), the IC90 was 0.0617 µM. For the same compound, the solubility (kinetic) in data set [16] is 6.3 µg/mL (≈ 16.1 µM); in data set [13], > 100 µg/mL. For the same compound, the microsomal CLint was 139 µL/min/mg in data set [3] and 231 µL/min/mg in [14]. In addition, the IC50 turned out to be 52.5 µM in [4], 1.9 µM in data set [12] and 0.016 µM in [9] (setting [23]). In addition, the results for the hepatic extraction ratio in data set [5] and in [14] were 0.89 and 0.88, respectively. Besides, the half-life was found to be 12.5 min in data set [6] and 7.5 min in data set [14].
For `CC(O)C(C)N1CCC(N(c2ccc(C(F)(F)F)cc2)c2cccnc2)CC1` (stereo not given), the chromatographic logD worked out at 1.3 in data set [10] (pH 3, logD) and 2.9 in [17] (pH 7.4, logD). In addition, the “t (1 / 2)” value in data set [19] is reported as 55.4 min. In addition, the IC90 in data set [1] was 0.96 µM and > 0.1 µM. Also, the concentration for half-maximal inhibition (IC50) in [20] was > 20 µM; in [18] it was 59.6 µM; in data set [4], 64.8 µM; in data set [9], 0.424 µM and 0.075 µM. Besides, the values for the kinetic solubility in data set [16] and in data set [13] were 25 µg/mL (≈ 63.5 µM) and > 100 µg/mL, respectively. Moreover, the EH in [21] stood at 0.57. Moreover, in [3] (CLint), the microsomal CLint turned out to be 23.8 µL/min/mg. Also, the hepatic extraction ratio in [5] (EH) is 0.64. The same compound yielded a half-life in data set [6] (t (1 / 2)) of 72.9 min. The compound also gave a CLint in data set [22] of 31.3 µL/min/mg.
As for `FC(F)(F)c1ccc(N(c2cncnc2)C2CCN(c3ccc(C(F)(F)F)nc3)CC2)cc1`, the IC90 in [1] is 0.021 µM and > 0.1 µM. Besides, the IC50 in [2] is > 10 µM; in data set [9] it was 0.0159 µM; in data set [9] (setting [23]), 0.01 µM.
On to `CC(C)(F)CN1CCC(N(c2ccc(C(F)(F)F)cc2)c2cccnc2)CC1`, for which the chromatographic logD in data set [10] (pH 3, logD) worked out at 1.8; in data set [17] (pH 7.4, logD), 5.1. For the same compound, the IC90 in [1] (setting [23]) amounted to 0.025 µM. Further, the solubility (kinetic) in [16] is 3.1 µg/mL (≈ 7.84 µM); in [13], > 100 µg/mL. Also, the figures for the IC50 in data set [2], in data set [4] and in [9] (setting [23]) were > 10 µM, 64.9 µM and 0.015 µM, respectively. In data set [3] (CLint), the microsomal CLint is 138 µL/min/mg. The half-life in data set [6] (t (1 / 2)) was 12.6 min.
With `FC(F)(F)c1ccc(N(c2cccnc2)C2CCN(C(c3ccccc3)C(F)(F)F)CC2)cc1` (stereo not given), the chromatographic logD is > 5.3 in data set [10] (pH 3, logD) and > 5.3 in data set [17] (pH 7.4, logD). Besides, the IC90 in data set [1] and in data set [1] (setting [23]) was 8.14 µM each time. The half-maximal inhibitory concentration (IC50) was > 20 µM in [20]; > 10 µM in data set [2]; > 100 µM in data set [4]; 5.13 µM in data set [9]; 5.13 µM in data set [9] (setting [23]). Further, the kinetic solubility in [16] is 1.6 µg/mL (≈ 3.34 µM); in data set [13], > 100 µg/mL. The intrinsic clearance (microsomal CLint) in [3] (CLint) was determined as 27.7 µL/min/mg. For the same compound, in [5] (EH), the hepatic extraction ratio worked out at 0.61. Besides, the half-life in data set [6] (t (1 / 2)) is 62.6 min.
